Data from article PMC10628858, “Investigation of new ferrocenyl-artesunate derivatives as antiparasitics” (Dalton Transactions (Cambridge, England : 2003), 2023).
Where “and” joins values, the source holds several entries; their conditions need not be identical. Equal entries are not always repeated. Where two headings read alike, the source gives them in different places. Each block holds one compound with its values, some of them ahead of it.

Experiments:
P. falciparum, NF54 = assay: P. falciparum growth inhibition assay (Malstat); assay type: cell-based, Plasmodium falciparum; settings: 72 h, maximum concentration tested 6000 nM, three independent experiments in triplicate, ± SEM, read-out: IC50 against P. falciparum, NF54
Protocol: The antimalarial activities of C1 to C4 and F1 to F3 were determined against the wild-type drug sensitive strain of P. falciparum, NF54. […]. Further, a close link between activity and oxidation potentials of the drugs was found. The lower the oxidation potential of the ferrocene moiety, the higher the activity of the final compound, giving directions for future compound development.
The drugs were prepared as 10 mM stocks in sterile DMSO. The drugs were then diluted using freshly prepared growth medium to the desired testing concentrations. Chloroquine and artesunate were used as standards. A full dose–response was preformed using a 96-well plate assay and the IC50 values determined. The maximum concentration tested was 6 μM which was then serially diluted 2-fold in growth media. The plates were incubated at 37 °C for 72 h at 3% O2 and 4% CO2. After 72 h the wells were resuspended and 15 μL of the suspension was transferred to a duplicate plate containing 100 μL of Malstat reagent and 25 μL of nitroblue tetrazolium solution. The plates were allowed 20 minutes in the dark to develop and the absorbance of each well was measured using UV-Vis at 620 nm.

[1] = test system: T. gondii (ΔKu80::mNeonGreen); assay: T. gondii growth inhibition assay (mNeonGreen fluorescence); assay type: cell-based, Toxoplasma gondii
Protocol: […]. The rate of hydrolysis of C2 and C4 is closely correlated to the activity seen against T. gondii, such that the more readily the complex separates into its constituents, parts the better the overall activity.
To further investigate whether the accumulation of ROS was implicated in the MoA, the growth inhibition studies were repeated in the presence of the ROS scavenger N-acetyl cysteine (NAC) (Table 5).
Growth inhibition assays were performed in black, clear-bottomed 96 well plates preseeded with Human foreskin fibroblasts (HFFs) as described previously.[48] ΔKu80:mNeonGreen T. gondii were counted using a hemeocytometer and media from the host-cell seeded plate was aspirated and replaced with either 200 μL of D3 or 200 μL of media + 5000 parasites per well. Infected cells were incubated for 2 hours at 37 °C with 5% CO2 to allow for invasion. Following this, the media was removed and replaced with 100 μL fresh media. 100 μL of media containing 100 μM of the indicated drug in sterile DMSO was added and serially diluted. The parasites were then incubated for four days at 37 °C with 5% CO2 then flourescense read using the PHERAstar microplate reader. After removal of background, fluorescence values were normalised to untreated and plotted. Data analysis and non-linear regression was performed in Prism.

[2] = Cyclic voltammetry (oxidation/reduction potentials); assay type: physicochemical; settings: Ag/AgCl electrode, scan rate 100 mV s^−1, 0.100 M [NBu4][PF6] in MeCN
[3] = Kinetic aqueous solubility, turbidimetric assay; assay type: physicochemical; settings: for solubility at 4 h: aqueous buffer, kinetic from dmso stock, absorbance 620 nm
Protocol: The kinetic solubility of the complexes was determined by means of a turbidimetric assay. The complexes were first dissolved in dimethyl sulfoxide (DMSO) which was then serially diluted in either phosphate buffered saline (PBS) or 4-(2-hydroxyethyl)-1-piperazineethanesulfonic acid (HEPES). The extent of precipitation was then measured using the absorbance at 620 nm.
PBS was prepared by dissolving one PBS tablet in 200 mL of distilled water at 25 °C yielding a buffered solution containing 10 mM phosphate buffer, 3.0 mM KCl and 140 mM NaCl. The pH was then confirmed to be at 7.4 with a pH meter. A 0.025 M HEPES buffer was prepared by dissolving HEPES free acid 5.00 mmol in distilled water (±180 mL) and titrating the solution with 0.100 M NaOH until a pH 7 was reached, the volume was then made up to 200 mL using distilled water. A 10.0 mM stock of each drug was prepared in DMSO. […] 4 μL of the drugs was then pipetted into a 96-well plate loaded with 196 μL of either the desired buffer solution or DMSO. The test plates were then incubated at 37 °C for 4 hours following which the UV-Vis absorbance was measured at 620 nm and the absorbances corrected by subtracting the blank.

HEK293 cells = assay: MTT cell viability assay, HEK293; assay type: cell-based, human; settings: 48 h
Protocol: (§1) To assess the cytotoxicity of the four compounds a MTT cell viability assay using human embryonic kidney (HEK293) and human prostatic (PNT1A) cell lines were performed. […] The long chain compounds C1 and C3 were also shown to be non-cytotoxic towards the HEK293 cell line.
(§2) The immortalised human prostatic epithelial cell line, PNT1A (Sigma Aldrich, 95012614) was cultured in RPMI-1640 containing 10% foetal calf serum (Life Technologies, South Africa). The human embryonic kidney cell line HEK293 (ATCC) was cultured in DMEM (Life Technologies, South Africa). Both cell lines were cultured at 37 °C under 5% CO2 with 1% penicillin and streptomycin. Cancer cell cytotoxicity was evaluated using the MTT viability assay according to our previous method.[49] Briefly, cells were seeded at a density of 3 × 10^3 cells per well in 96-well plates and allowed to settle overnight. A 100 mM stock of C1/C2 and a 50 mM stock solution of C3/C4 in DMSO was prepared from which dilutions were made. The compound was then added to the cells in triplicate to obtain the indicated concentrations and 0.1% DMSO. Controls included cells treated with […] DMSO alone. After 48 h, 10 μL of 5 mg mL^−1 MTT (3-(4,5-dimethylthiazol-2-yl)-2,5-diphenyltetrazolium bromide) (Sigma-Aldrich) was added, and incubated with the cells for 4 h, followed by addition of 100 μL 10% SLS, 0.01 M HCL. The plates were read at 595 nm on a Multiscan FC plate reader (Thermo Scientific) and the data was fitted to a variable slope dose–response curve using Graphpad prism v6 to obtain the cytotoxicity IC50. The assay was repeated independently three times where inhibition was observed.

PNT1A cells = assay: MTT cell viability assay, PNT1A; assay type: cell-based, human; settings: 48 h
Protocol: as §1, §2

[4] = Aqueous stability (hydrolysis) by UV-Vis kinetic scan in 10% MeOH (aq); assay type: physicochemical; settings: change in absorbance at 254 nm over one hour, ExpDec1 fit
Protocol: Since biological systems are comprised of water, the behavior and stability of a drug in aqueous media is important. To determine the stability, each complex was dissolved in MeOH and then diluted to 10% MeOH (aq). The solutions were then monitored by UV-Vis spectroscopy using a kinetic scan in the range 190–1100 nm over 1 hour. […] Hydrolysis was also supported by RP-HPLC in which new peaks emerged corresponding to the starting ferrocene precursors, F2 and F4. […] […] The major difference being between C1/C2 and C3/C4 is the nature of the linkage either being an ester or an amide bond. It is expected that the hydrolysis of C2 would occur quicker due to the more labile nature of the ester bond.
UV-Vis studies were performed by dissolving each complex in methanol to a concentration of 1 mM. This was then diluted using distilled water in a 10% methanol/water mixture giving a final concentration of 100 μM. The complexes were then monitored using a kinetic scan between the range 190–1100 nm scanning each minute over the course of one hour. […]

[5] = test system: clinically resistance (CQ-R) isolates of P. falciparum; set-up: method as in PMID 21894260; settings: cited from earlier work
T. gondii [6] = assay: Determination of intracellular ROS levels with CellROX by flow cytometry; assay type: cell-based, Toxoplasma gondii; settings: 5 μM, 6 hours, 50 000 parasites, vs untreated
Protocol: Since both ferrocene and artesunate are able to generate ROS, we attempted to quantify the intracellular ROS levels in the parasite using CellROX, a compound which fluoresces in the presence of ROS. Treatment with artesunate was included as positive control as previous studies have linked artesunate treatment to ROS accumulation.[44] The parasites were treated with 5 μM of complexes C1, C3 and C4, and incubated for 6 hours. […] Since T. gondii rely predominately on heme biosynthesis as opposed to incorporation of heme from host hemoglobin, the concentration of iron present in the parasite is lower.[45] But, by incorporating an iron center in the molecule the slower activation may be circumvented leading to quicker cell death and a decreased CellROX reading.
Fig. 5 CellROX fluorescence quantified by flow cytometry from 50 000 parasites. T. gondii were untreated (grey) or treated for 6 hours with 5 μM compounds (blue) or artesunate (red) as a positive control.
Intracellular parasites were treated with 5 μM of the drug and incubated at 37 °C with 5% CO2 for either 18 hours or 6 hours. The parasites were released from host cells by scraping and syringing followed by passing through 3 μm filters to remove host-cell debris. The parasites were spun down at 6000 RPM for 10 minutes and resuspended in 500 μL PBS. 100 μL of the parasite suspension was placed in a FACS tube and a stock solution of CellROX dye in PBS (1 : 125 dilution) was added to this. This was then incubated in the dark at 37 °C for 1 hour and then read using a BD Celesta. Parasites were gated on forward and side scatter and on mNeonGreen fluorescence and histograms of Cy5 signal presented. Data analysis was performed using Flowjo.

T. gondii [7] = test system: T. gondii; set-up: method as in PMID 32968076; settings: read-out: IC50 against T. gondii; cited from earlier work

Structure (SMILES): O=C(NCCO)[c-]1cccc1.[Fe+2].c1cc[cH-]c1 [Compound F1, N-(Hydroxyethyl)ferrocenamide]
- IC50 (P. falciparum, NF54): > 6000 nM

Structure (SMILES): CC1CCC2C(C)C(OC(=O)CCC(=O)OC[c-]3cccc3)OC3OC4(C)CCC1C32OO4.[Fe+2].c1cc[cH-]c1 (centres unmarked) [Compound C2]
- IC50 ([1]; four days, in HFF host cells, three independent experiments in triplicate, ± SEM, read-out: IC50 against T. gondii): 280 ± 22 nM
- IC50 (P. falciparum, NF54): 19 ± 4 nM
- E 1/2 [2]: 0.503 V
- E Ox [2]: 0.561 V
- E Red [2]: 0.445 V
- ΔE [2]: 0.116 V
- Solubility range ([3]; turbidimetric assay, buffer not named): 23 to 47 µg/mL
- IC50 (HEK293 cells): 53000 ± 5700 nM
- IC50 (PNT1A cells): > 100000 nM
- Half-life [4]: 3.0 ± 0.16 min
- Rate constant (hydrolysis) [4]: 0.23 ± 0.013 min⁻¹

Structure (SMILES): NCCNC(=O)[c-]1cccc1.[Fe+2].c1cc[cH-]c1 [Compound F3, N-(2-aminoethyl)ferrocenamide]
- IC50 (P. falciparum, NF54): > 6000 nM

Structure (SMILES): CN(C)Cc1ccc[c-]1CNc1ccnc2cc(Cl)ccc12.[Fe+2].c1cc[cH-]c1 (centres unmarked) [Ferroquine, ferroquine]
- Activity against CQ-R isolates of P. falciparum [5]: less than 30 nM

Structure (SMILES): C[C@H]1[C@H](OC(=O)CCC(=O)O)O[C@@H]2O[C@@]3(C)CC[C@H]4[C@H](C)CC[C@@H]1[C@@]24OO3 [Artesunate, artesunate]
- IC50 ([1]; Toxoplasma gondii, 96 h, read-out: IC50 against T. gondii): 200 ± 6 nM
- IC50 ([1]; Toxoplasma gondii, read-out: IC50 + NAC against T. gondii): 310 ± 28 nM
- IC50 (P. falciparum, NF54; Plasmodium falciparum, NF54): 3 ± 1 nM
- Change in CellROX signal (intracellular ROS) (T. gondii [6]): increase

Structure (SMILES): C[C@H]1[C@@H](O)O[C@@H]2O[C@@]3(C)CC[C@H]4[C@H](C)CC[C@@H]1[C@@]24OO3 [DHA, dihydroartemisinin]
- IC50 (T. gondii [7]): ~66 nM

Structure (SMILES): OC[c-]1cccc1.[Fe+2].c1cc[cH-]c1 [Compound F2, ferrocene methanol]
- IC50 (P. falciparum, NF54): 3400 ± 96 nM

Structure (SMILES): [Fe+2].c1cc[cH-]c1.c1cc[cH-]c1 [Ferrocene, reference compound]
- E 1/2 [2]: 0.446 V
- E Ox [2]: 0.499 V
- E Red [2]: 0.393 V
- ΔE [2]: 0.106 V

- solubility at 4 h ([3]; HEPES buffer with 2% DMSO, HEPES pH 7, 37 °C, read-out: Aqueous solubility range, HEPES): 40 µM to 80 µM and 24 µg/mL to 50 µg/mL
- solubility at 4 h ([3]; phosphate buffered saline (PBS) with 2% DMSO, PBS pH 7.4, 37 °C, read-out: Aqueous solubility range, PBS): 20 µM to 40 µM and 12 µg/mL to 24 µg/mL
Structure (SMILES): COC(=O)[C@H]1[C@H]2C[C@@H]3c4[nH]c5cc(OC)ccc5c4CCN3C[C@H]2C[C@@H](OC(=O)c2cc(OC)c(OC)c(OC)c2)[C@@H]1OC [Reserpine, reference compound]
